# According to publication PMC8781960, “Structural Basis of 2-Phenylamino-4-phenoxyquinoline Derivatives as Potent HIV-1 Non-Nucleoside Reverse Transcriptase Inhibitors” (Molecules, 2022):
# Marks after values point to notes of the source that are not given here.
# What was measured:
# [1] = tested on: MOLT-3 (acute lymphoblastic leukemia); assay: In vitro cytotoxicity (XTT); conditions: for IC50: Homo sapiens, MOLT-3, 48 h, read-out: IC50 MOLT-3; for %C percentage cytotoxicity MOLT-3: at 50 µg/mL, inactive (IC50 ≥ 50 µg/mL)
# Protocol: (§1) Background control wells contained the same volume as the complete culture medium. […] Samples at various concentrations were added to the microplate and incubated for another 48 h. Cell viability was determined by 3(4,5-dimethylthiazol-2-yl)-2-5-diphenyl tetrazolium bromide (MTT) assay (Sig-ma-Aldrich). The reagent was dissolved in phosphate-buffered saline at 5 mg/mL and filtered to sterilize and remove the small amount of insoluble residue present in some batches of MTT. […] Subsequently, dimethyl sulfoxide (100 µL; Merck, Germany) was added to dissolve the resulting formazan by sonication. The plates were read on a microplate reader (Molecular Devices, CA, USA) using a test wavelength of 550 nm and a reference wavelength of 650 nm. XTT assay for suspension cells was used for MOLT-3 cells.
# S102 (Thai liver cancer) = assay: In vitro cytotoxicity (MTT); conditions: for %C percentage cytotoxicity S102: at 50 µg/mL, inactive (IC50 ≥ 50 µg/mL)
# Protocol: as §1
# HL-60 (promyeloblast) = assay: In vitro cytotoxicity (MTT); conditions: for IC50: Homo sapiens, HL-60, 48 h, read-out: IC50 HL-60; for %C percentage cytotoxicity HL-60: at 50 µg/mL, inactive (IC50 ≥ 50 µg/mL)
# Protocol: as §1
# [2] = tested on: HuCCA-1 (cholangiocarcinoma); assay: In vitro cytotoxicity (MTT); conditions: for IC50: Homo sapiens, HuCC-A1, 48 h, read-out: IC50 HuCCA-1; for %C percentage cytotoxicity HuCCA-1: at 50 µg/mL, inactive (IC50 ≥ 50 µg/mL)
# Protocol: as §1
# [3] = tested on: T47-D (hormone-dependent breast cancer); assay: In vitro cytotoxicity (MTT); conditions: for IC50: Homo sapiens, T47D, 48 h, read-out: IC50 T47-D; for %C percentage cytotoxicity T47-D: at 50 µg/mL, inactive (IC50 ≥ 50 µg/mL)
# Protocol: as §1
# HepG2 (hepatocarcinoma) = assay: In vitro cytotoxicity (MTT); conditions: for IC50: Homo sapiens, HepG2, 48 h, read-out: IC50 HepG2; for %C percentage cytotoxicity HepG2: at 50 µg/mL, inactive (IC50 ≥ 50 µg/mL)
# Protocol: as §1
# [4] = tested on: HeLA (cervical carcinoma); assay: In vitro cytotoxicity (MTT); conditions: for IC50: Homo sapiens, HeLa, 48 h, read-out: IC50 HeLA; for %C percentage cytotoxicity HeLA: at 50 µg/mL, inactive (IC50 ≥ 50 µg/mL)
# Protocol: as §1
# [5] = tested on: MDA-MB-231 (hormone-independent breast cancer); assay: In vitro cytotoxicity (MTT); conditions: for IC50: Homo sapiens, MDA-MB-231, 48 h, read-out: IC50 MDA-MB-231; for %C percentage cytotoxicity MDA-MB-231: at 50 µg/mL, inactive (IC50 ≥ 50 µg/mL)
# Protocol: as §1
# A549 (lung carcinoma) = assay: In vitro cytotoxicity (MTT); conditions: for IC50: Homo sapiens, A549, 48 h, read-out: IC50 A549; for %C percentage cytotoxicity A549: at 50 µg/mL, inactive (IC50 ≥ 50 µg/mL)
# Protocol: as §1
# [6] = tested on: MRC-5 (normal embryonic lung cell); assay: In vitro cytotoxicity (MTT), normal cell line; conditions: for IC50: Homo sapiens, MRC5, 48 h, read-out: IC50 MRC-5; for %C percentage cytotoxicity MRC-5: normal cell line, at 50 µg/mL, inactive (IC50 ≥ 50 µg/mL)
# Protocol: as §1
# HIV-1 RT [7] = target: T1, HIV-1 RT (Human immunodeficiency virus type 1 group M subtype B, UniProt P03366); design: method as in PMID 31698495; conditions: 1 µM; previously reported values for 5a–5d; cited from earlier work
# T1 construct: The reaction mixture consisted of template/primer complex, 2′-deoxy-nucleotide-5′-triphosphates (dNTPs), and RT enzyme in lysis buffer; purchased Roche Applied Science, Mannheim, Germany
# [8] = tested on: H69AR (lung cancer, multidrug resistant); assay: In vitro cytotoxicity (MTT); assay type: cell-based, human; conditions: 48 h; for %C percentage cytotoxicity H69AR: human, 50 µg/mL; for IC50: Homo sapiens, H69AR, mean ± standard error
# Protocol: Background control wells contained the same volume as the complete culture medium. […] The reagent was dissolved in phosphate-buffered saline at 5 mg/mL and filtered to sterilize and remove the small amount of insoluble residue present in some batches of MTT. […] Subsequently, dimethyl sulfoxide (100 µL; Merck, Germany) was added to dissolve the resulting formazan by sonication. The plates were read on a microplate reader (Molecular Devices, CA, USA) using a test wavelength of 550 nm and a reference wavelength of 650 nm.
# HIV-1 RT [9] = target: T1, HIV-1 RT; assay: HIV-1 RT inhibition assay (Roche RT kit, colorimetric ELISA); assay type: biochemical; conditions: read-out: Inhibitory activities (%) against HIV-1 RT
# Description: The inhibition assay of HIV-1 RT was accomplished using the template/primer hybrid poly(A) × oligo(dT)15, digoxigenin (DIG)- and biotin-labeled nucleotides, an antibody to DIG that was conjugated to peroxidase (anti-DIG-POD), and the peroxidase substrate ABTS. The quantities of DIG- and biotin-labeled dUTP incorporated into DNA represent t HIV-1 RT activity. The HIV-RT inhibition assay was implemented using an RT assay kit (Roche Applied Science, Mannheim, Germany), and the procedures for assaying RT inhibition were performed as described in the kit protocol. […] The reaction mixture consisted of template/primer complex, 2′-deoxy-nucleotide-5′-triphosphates (dNTPs), and RT enzyme in lysis buffer with or without an inhibitor. […] The biotin-labeled dNTPs that were incorporated in the template bound to streptavidin because of the presence of RT. Unbound dNTPs were washed using a wash buffer, and anti-DIG-POD was added to the MTP. The DIG-labeled dNTPs incorporated in the template bound to the anti-DIG-POD antibody. Unbound anti-DIG-POD was also washed elaborately five times using a wash buffer. Finally, the peroxide substrate (ABST) was added to the MTP. A colored reaction product emerged during the cleavage of the substrate catalyzed by […]. The absorbance of the sample was measured at the optical density (OD) at 490 nm using the MTP (enzyme-linked immunosorbent assay [ELISA]) reader. The percentage inhibitory activities of the RT inhibitors were calculated by comparing with that of the sample without an inhibitor. The resulting color intensity was directly proportional to the RT activity. Percentage inhibitory values were calculated using the following formula: Inhibition (%) = [1–(OD value with RT and inhibitor−OD value without RT and inhibitors)/(OD value without inhibitors with RT−OD value without RT and inhibitors)] × 100.
SMILES,IC50 [1],%C percentage cytotoxicity S102 (S102 (Thai liver cancer)),IC50 (HL-60 (promyeloblast)),IC50 [2],IC50 [3],IC50 (HepG2 (hepatocarcinoma)),IC50 [4],IC50 [5],IC50 (A549 (lung carcinoma)),IC50 [6],Inhibitory activities (%) against HIV-1 RT (HIV-1 RT [7]),melting point,%C percentage cytotoxicity H69AR [8],IC50 [8],%C percentage cytotoxicity MOLT-3 [1],%C percentage cytotoxicity HL-60 (HL-60 (promyeloblast)),%C percentage cytotoxicity HuCCA-1 [2],%C percentage cytotoxicity T47-D [3],%C percentage cytotoxicity HepG2 (HepG2 (hepatocarcinoma)),%C percentage cytotoxicity A549 (A549 (lung carcinoma)),further results
"N#Cc1ccc(Nc2cc(Oc3ccc(C=O)cc3)c3ccccc3n2)cc1 [Compound 5a, 4-(4′-formylphenoxy)-2-(4″-cyanophenyl)-aminoquinoline]",15.6 ± 3.6 µM,%C = 20.9 ^c,16.6 ± 4.7 µM,29.7 ± 2 µM,43 ± 5.3 µM,73.2 ± 7.7 µM,12.6 ± 1.3 µM,77.7 ± 5.9 µM,122 ± 4.5 µM,108 ± 4.7 µM,19.4 ± 1.7%,267.1 to 268 °C,%C = 38.0 ^c,–,–,–,–,–,–,–,–
"Cc1cc(C=O)cc(C)c1Oc1cc(Nc2ccc(C#N)cc2)nc2ccccc12 [Compound 5b, 4-(2′,6′-Dimethyl-4′-formylphenoxy)-2-(4″-cyanophenyl)-aminoquinoline]",11.8 ± 1.6 µM,–,4.5 ± 0.2 µM,29.4 ± 2 µM,22.9 ± 0.9 µM,65.9 ± 6.1 µM,3.9 ± 0.6 µM,15.9 ± 0.4 µM,51.2 ± 3 µM,69.8 ± 4.3 µM,34.0 ± 2.5%,291.3 to 292.2 °C,–,27.6 ± 3.4 µM,–,–,–,–,–,–,"IC50 (S102 (Thai liver cancer); Homo sapiens, 48 h, read-out: IC50 S102): 74 ± 5.3 µM"
"N#Cc1ccc(Nc2cc(Oc3ccc(C#N)cc3)c3ccccc3n2)cc1 [Compound 5c, 4-(4′-cyanophenoxy)-2-(4″-cyanophenyl)-aminoquinoline]",–,%C = 0.0 ^c,–,–,–,–,–,–,–,–,39.7 ± 3.0%,–,%C = 26.0 ^c,–,%C = 6.0 ^c,%C = 2.0 ^c,%C = 23.0 ^c,%C = 45.0 ^c,%C = 44.8 ^c,%C = 26.0 ^c,%C percentage cytotoxicity HeLA [4]: %C = 25.0 ^c; %C percentage cytotoxicity MDA-MB-231 [5]: %C = 38.4 ^c; %C percentage cytotoxicity MRC-5 [6]: %C = 12.0 ^c
"N#Cc1ccc(Oc2cc(Oc3ccc(C#N)cc3)c3ccccc3n2)cc1 [Compound 4c, 2,4-di-(4′-cyanophenoxy)-quinoline]",–,%C = 23.7 ^c,–,–,–,–,–,92.5 ± 4.2 µM,–,108 ± 6.4 µM,–,220.9 to 221.5 °C,%C = 21.0 ^c,–,%C = 11.0 ^c,%C = 15.0 ^c,%C = 15.0 ^c,%C = 27.0 ^c,%C = 41.4 ^c,%C = 12.0 ^c,inhibition at 1 µM (HIV-1 RT [9]): 30.9 ± 1.8%; %C percentage cytotoxicity HeLA [4]: %C = 23.0 ^c
"Cc1cc(C#N)cc(C)c1Oc1cc(Nc2ccc(C#N)cc2)nc2ccccc12 [Compound 5d, 4-(2′,6′-Dimethyl-4′-cyanophenoxy)-2-(4″-cyanophenyl)-aminoquinoline]",48.8 ± 41 µM,%C = 0.0 ^c,33.4 ± 1.7 µM,–,–,–,83.4 ± 5.7 µM,–,–,–,27.8 ± 3.1%,256.5 to 257 °C,%C = 0.0 ^c,–,–,–,%C = 3.0 ^c,%C = 24.0 ^c,%C = 38.2 ^c,%C = 21.0 ^c,%C percentage cytotoxicity MDA-MB-231 [5]: %C = 14.9 ^c; %C percentage cytotoxicity MRC-5 [6]: %C = 7.4 ^c
"N#Cc1ccc(Nc2cc(Oc3ccc(C=O)cc3)c3ccccc3n2)nc1 [Compound 6a, 4-(4’-formylphenoxy)-2-(5″-cyanopyridin-2″ylamino)quinoline]",5.13 ± 1.5 µM,%C = 31.7 ^c,15 ± 1.8 µM,14.9 ± 1.1 µM,46.3 ± 0.2 µM,23.7 ± 1 µM,15.4 ± 0.8 µM,68 ± 2 µM,–,18.3 ± 3.9 µM,–,248 to 249 °C,–,64.2 ± 2.5 µM,–,–,–,–,–,%C = 42.0 ^c,inhibition at 1 µM (HIV-1 RT [9]): 19.4 ± 1.8%
